Measured values taken from PMC5325712 (Journal of medicinal chemistry, 2017).

Legend:
[1] = target: D2R long isoform (Homo sapiens, UniProt P14416); test: β-arrestin recruitment assay; assay type: cell-based; conditions: dopamine curve-shift / inhibition of dopamine stimulation
[2] = target: T1, D3R (Homo sapiens, UniProt P35462); test: β-arrestin recruitment assay; conditions: dopamine curve-shift assays, best fit by F-test
[3] = target: T1, D3R; conditions: Table 1; ratio of binding Ki values D2R/D3R
[4] = target: D3R; conditions: read-out: D3R receptor binding affinities; cited from earlier work
[5] = tested on: D2R; conditions: 6 compared to 5; cited from earlier work
[6] = tested on: D2R; conditions: at concentrations over 50 μM; cited from earlier work

T1 sequence (P35462 whole entry): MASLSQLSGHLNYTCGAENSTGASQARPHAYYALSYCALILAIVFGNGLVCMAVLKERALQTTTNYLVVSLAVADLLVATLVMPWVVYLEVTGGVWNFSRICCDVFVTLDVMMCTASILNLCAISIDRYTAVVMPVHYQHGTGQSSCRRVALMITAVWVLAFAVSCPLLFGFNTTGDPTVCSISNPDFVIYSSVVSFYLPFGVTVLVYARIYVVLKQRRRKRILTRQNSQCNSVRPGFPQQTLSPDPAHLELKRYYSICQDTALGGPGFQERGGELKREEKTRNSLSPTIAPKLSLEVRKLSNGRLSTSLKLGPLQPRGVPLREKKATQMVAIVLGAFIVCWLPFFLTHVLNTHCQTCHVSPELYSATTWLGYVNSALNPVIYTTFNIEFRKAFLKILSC
D2R long isoform, sequence (P14416 whole entry, canonical isoform): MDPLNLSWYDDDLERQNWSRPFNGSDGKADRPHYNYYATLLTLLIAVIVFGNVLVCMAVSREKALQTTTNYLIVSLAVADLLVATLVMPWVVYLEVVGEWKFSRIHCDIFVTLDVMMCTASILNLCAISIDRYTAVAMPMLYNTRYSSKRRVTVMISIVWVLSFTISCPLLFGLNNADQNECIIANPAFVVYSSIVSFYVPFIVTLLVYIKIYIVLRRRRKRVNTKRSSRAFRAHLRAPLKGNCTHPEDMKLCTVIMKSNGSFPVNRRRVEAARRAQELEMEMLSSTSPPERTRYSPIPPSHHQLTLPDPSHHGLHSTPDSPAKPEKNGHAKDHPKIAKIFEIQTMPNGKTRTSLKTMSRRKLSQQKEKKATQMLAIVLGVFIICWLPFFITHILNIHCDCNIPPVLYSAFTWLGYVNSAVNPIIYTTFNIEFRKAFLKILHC

SMILES: CCN1CCCC1CNC(=O)c1cc(S(N)(=O)=O)ccc1OC (stereo not shown) [sulpiride]
- mechanism of antagonism at the D2R [1]: competitive antagonist
- mechanism of antagonism at the D3R [2]: competitive antagonist

SMILES: N#Cc1cccc(N2CCNCC2)c1 [Compound 8, 3-(Piperazin-1-yl)benzonitrile]
- D2/D3 [3]: 7.5–9.1

SMILES: O=C(NC/C=C/CN1CCN(c2cccc(Cl)c2Cl)CC1)c1ccc(-c2ccccn2)cc1 [Compound 6]
- Ki [4]: ~1 nM
- lower affinity at D2R [5]: ~ 2 fold

SMILES: CC(C)NC(=O)c1cc2ccccc2[nH]1 [Compound 13b]
- mode of action at the D2R [6]: allosteric antagonist of the D2R with modest negative cooperativity with dopamine

SMILES: N#Cc1ccc2c(c1)CNCC2 [Compound 9b, 7-cyano-1,2,3,4-tetrahydroisoquinoline]
- D2/D3 [3]: 7.5–9.1
